Experimental data as given in PMC10648586, “Jasmone Is a Ligand-Selective Allosteric Antagonist of Aryl Hydrocarbon Receptor (AhR)” (International Journal of Molecular Sciences, 2023).

Biological target: T1, mouse AhR (mAhr) (Mus musculus, UniProt P30561)
T1 construct: cytosolic protein from Hepa1c1c7 cells
T1 sequence (P30561 10-848): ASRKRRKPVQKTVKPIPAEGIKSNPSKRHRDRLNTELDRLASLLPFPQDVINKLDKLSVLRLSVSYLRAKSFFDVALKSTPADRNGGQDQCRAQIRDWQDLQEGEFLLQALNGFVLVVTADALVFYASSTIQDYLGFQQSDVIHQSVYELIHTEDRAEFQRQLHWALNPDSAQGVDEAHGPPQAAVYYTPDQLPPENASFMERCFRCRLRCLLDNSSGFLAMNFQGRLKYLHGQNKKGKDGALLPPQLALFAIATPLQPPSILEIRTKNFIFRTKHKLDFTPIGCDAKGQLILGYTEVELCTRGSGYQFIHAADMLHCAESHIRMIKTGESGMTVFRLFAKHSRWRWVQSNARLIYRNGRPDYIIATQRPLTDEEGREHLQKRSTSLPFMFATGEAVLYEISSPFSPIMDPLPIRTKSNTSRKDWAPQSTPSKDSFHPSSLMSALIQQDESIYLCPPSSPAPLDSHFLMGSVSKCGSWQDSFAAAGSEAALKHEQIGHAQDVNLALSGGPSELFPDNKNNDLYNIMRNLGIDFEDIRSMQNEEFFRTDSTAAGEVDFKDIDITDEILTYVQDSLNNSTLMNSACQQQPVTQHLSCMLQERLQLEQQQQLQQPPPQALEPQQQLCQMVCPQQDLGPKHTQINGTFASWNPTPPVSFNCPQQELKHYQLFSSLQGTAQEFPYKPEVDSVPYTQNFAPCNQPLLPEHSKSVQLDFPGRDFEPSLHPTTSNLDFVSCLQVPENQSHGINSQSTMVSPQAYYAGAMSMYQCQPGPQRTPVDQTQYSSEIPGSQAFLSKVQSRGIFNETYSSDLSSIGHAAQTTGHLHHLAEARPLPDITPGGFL
Assay: [3H]-TCDD competitive radioligand binding; partial displacement (about […]) at […]

## CC/C=C\CC1=C(C)CCC1=O [jasmone, 3-methyl-2-[(2Z)-pent-2-en-1-yl]cyclopent-2-en-1-one]
  IC50: > 609 µM
